# Measurements taken from patent US20250127774A1, “COMPOUNDS FOR LABELLING NUCLEIC ACID AND USES THEREOF” (THE ROYAL INSTITUTION FOR THE ADVANCEMENT OF …, priority 2022, published 2025).
# Several values for one entry are separate records, joined by “and”; a condition that tells them apart may be missing. Equal values may be shown once.
# Assays:
# calf thymus (CT) DNA = test: Binding affinity measurements of PINK with CT-DNA (absorbance changes at 575 nm); conditions: 10 μM PINK, CT-DNA 0-160 μM base pairs, 50 mM NaOAc buffer pH 5.2 (0.2% DMSO); 1 molecule per 5 base pairs; read-out: apparent dissociation constant (KD)
# Experimental: B) Fluorescence changes (excitation: 500 nm, emission: 590 nm; 515 nm cutoff filter) of 20 μM PINK in the presence of 1 mM b.p. CT-DNA (50 eq) in PBS pH 7.4 (10% DMSO) followed by addition of 5-norbornene-2-methanol (2 mM, 100 eq).
# To evaluate the ability of PINK (4) to undergo reversible intercalation into duplex DNA, the absorbance of PINK was monitored upon addition of calf-thymus (CT) DNA. Consistent with intercalation,^[42-44] a bathochromic shift in PINK absorbance was observed upon addition of CT DNA (FIG. 3, a). To further evaluate the binding mode, viscosity measurements of concentrated DNA solutions were conducted in presence of increasing amounts of PINK. […] By taking the maximum binding stoichiometry of PINK into account (1 molecule per 5 base pairs; see FIG. 1b), an apparent dissociation constant KD can be calculated according to KD=[(unbound PINK)*(unbound DNA binding sites)]/(PINK-bound binding sites).
# Binding Affinity Measurements of PINK with CT-DNA. Binding of PINK to CT-DNA was assessed by monitoring changes of absorbance collecting measurements on a SpectraMax M5 plate reader (Molecular Devices, Sunnyvale, CA, USA) in 1 cm path-length quartz cuvettes. […] Binding of PINK to CT-DNA and determination of an apparent binding constant (KD) was calculated by plotting changes of absorbance at 575 nm.
# [1] = test system: VdU-labeled DNA in living Hela cells; test: Live-cell metabolic labeling, PINK staining kinetics; format: cell-based
# Experimental: To evaluate the ability of PINK to enter live cells and undergo fluorogenic reactions with vinyl groups in native chromatin, Hela cells were grown in rich media containing 10 μM VdU for 15 h and subsequently stained with 1-2 μM PINK for 4 h. Total cellular DNA was counterstained with Hoechst […] (5 μM; 405 nm laser; emission 410-480 nm) for 10 minutes prior to imaging PINK (514 nm laser; emission 570-700 nm). Control (ctrl) samples were treated with PINK but not VdU. All cells were treated and maintained in DMEM media containing 10% FBS and grown in 5% CO2 at 37° C. Live cell images were acquired using a confocal microscope.
# The intracellular reaction kinetics of PINK staining was next investigated. Cells were seeded at a concentration of 2.5×10^4 cells/mL, allowed to settle overnight, and incubated with 100 μM VdU for 24 h. Cells were stained with 10 μM PINK between 10 min and 25 h, co-stained with Hoechst 33342 (5 μg/mL), and images were acquired on a confocal microscope. Samples were optimized for an ideal signal to noise ratio after staining for 1 h, illustrating a sufficiently bright signal at this stage. Ctrl samples were exposed to PINK for 25 h, thus explaining the relatively high background. […] Labeling was efficient in multiple cell lines. U2OS cells were seeded in μ-slide 8-well (Ibidi®) (3.0×10^4 cells in 200 μL; 1.5×10^5 cells/mL) in DMEM and given 20 h to settle. Cells were aspirated and VdU (0-100 μM in 200 μL DMEM) was added. Cells were incubated for 18 h, aspirated, and PINK (5 μM in 200 μL DMEM, 0.05% DMSO) was added. Cells were incubated for 5 h, aspirated, and Hoechst 33342 (2 μg/mL in 200 μL DMEM) was added for 15 min. Cells were aspirated and the media was exchanged for 200 μL DMEM (-Phenol Red). Images were acquired on a confocal microscope (FIG. 11). […] Cells (5.0×10^4 cells/mL) were seeded and allowed to settle overnight. Cells were incubated with 20 μM VdU for 16 h and stained with 2 μM PINK for 5 h, Cells were aspirated and fresh media (w/o Phenol Red) was added. Control Samples received identical treatment, but were not exposed to VdU. […]
# [2] = 100 μM VdU 24 h, then 10 μM PINK
smiles,measurement,setting,value
Cc1nnc(-c2ccc3cc4ccc(N(C)C)cc4nc3c2)nn1 [PINK],Kd,calf thymus (CT) DNA,5 µM and 5.1 µM
same,retention of fluorescent signal in living cells,"[1]; 20 μM VdU 16 h, 2 μM PINK 5 h, fresh media, t=0, 24 h",retained in living cells 24 h after being removed from the media
same,incubation time after which a clear signal above background is observed,[1]; [2],1 h
same,staining duration ideal to achieve complete labeling,[1]; [2],5 h
